Experimental data: patent US4681966A, “Intermediate for thiol based collagenase inhibitors” (G. D. Searle & Co., priority 1986, dated 1987)
pIC50: −log10 of the molar value.

Target: T1, Human Rheumatoid Synovial collagenase (Homo sapiens, UniProt P03956)
T1 construct: Synovial collagenase; from tissue; host or cells: human rheumatoid synovium (from the enzyme's printed name)
T1 sequence (P03956 100-469): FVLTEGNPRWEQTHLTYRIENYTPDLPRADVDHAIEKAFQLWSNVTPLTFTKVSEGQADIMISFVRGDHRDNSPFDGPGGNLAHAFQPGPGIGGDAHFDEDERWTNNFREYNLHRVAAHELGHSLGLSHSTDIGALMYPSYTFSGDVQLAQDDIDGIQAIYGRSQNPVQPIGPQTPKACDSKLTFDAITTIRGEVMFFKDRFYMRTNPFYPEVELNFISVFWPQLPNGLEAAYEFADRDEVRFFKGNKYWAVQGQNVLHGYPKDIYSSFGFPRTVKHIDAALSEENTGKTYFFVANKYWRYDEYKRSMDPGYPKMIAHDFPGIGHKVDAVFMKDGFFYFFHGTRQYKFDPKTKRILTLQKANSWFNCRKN
Test: Inhibition of collagenase: acetyl 14C collagen degradation (Cawston and Barrett), concentration effecting 50% inhibition
Assay type: biochemical
Conditions: Table 3; comparison R1 = H vs CH3; 37° C., 16 hours, pH 7.6; read-out: IC50 against human rheumatoid sinovial [collagenase]
Experimental: This was determined following the procedure of Cawston and Barrett, Anal. Biochem,. 99, 340-345 (1979) whereby the 1 mM of the inhibitor being tested or dilutions thereof are incubated at 37° C. for 16 hours with native collagen and collagenase (buffered with Tris HCl--CaCl2; pH 7.6). The collagen is acetyl ^14 C collagen. The samples are centrifuged to sediment undigested collagen and an aliquot of the radiactive supernatant removed for assay on a scintillation counter as a measure of hydrolysis. The collagenase activity in the presence of 1 mM inhibitor, or a dilution thereof, is compared to activity in a control devoid of inhibitor and the results reported as that inhibitor concentration effecting 50% inhibition of the collagenase.
This was determined following the procedure of Cawston and Barrett, Anal. Biochem., 99, 340-345 (1979) whereby the 1 mM of the inhibitor being tested or dilutions thereof are incubated at 37° C. for 16 hours with native collagen and collagenase (buffered with Tris HCl--CaCl2; pH 7.6). The collagen is acetyl […] collagen. The samples are centrifuged to sediment undigested collagen and an aliquot of the radioactive supernatant removed for assay on a scintillation counter as a measure of hydrolysis. […]

SMILES: CNC(=O)[C@@H](NC(=O)C(CC(C)C)C(C)S)[C@@H](C)OCc1ccccc1 (stereo partly drawn) [Example 6 A, N-[2-(1-Mercaptoethyl)-4-methylpentanoyl]-O-benzyl-L-threonine N-Methylamide]
- pIC50: 6.35
